{"source": "PubChem BioAssay AID652028", "about": "(The Scripps Research Institute Molecular Screening Center, 2013)", "note": "The source made the active and inactive calls.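 The calls were made as follows: active = fold change under 0.5 at 10 µM in a cell reporter of NFkB inflammatory signaling; inactive = the rest.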"}
{"tested_on": "HEK NFkB luciferase reporter, IL-6 stimulated, luminescence", "test": "blockade of IL-6-induced NFkB reporter activity – HEK cells, luminescence, IL-6 stimulus, powder samples, counter-screen for STAT5 inhibitor project, late-stage follow-up (AID 652028)", "conditions": "at 10 µM; hits give low values"}
{"smiles": "CN1/C(=C\\C(=O)Cn2nnc(-c3ccccc3)n2)C(C)(C)c2ccccc21", "fold change": "0.871 (inactive)"}
{"smiles": "CN1/C(=C\\C(=O)CN2C(=O)C3CC=CCC3C2=O)C(C)(C)c2ccccc21", "note": "(stereo unspecified)", "fold change": "0.828 (inactive)"}
{"smiles": "CCOC(=O)C1CCCN(CC(=O)/C=C2/N(C)c3ccccc3C2(C)C)C1", "note": "(stereo unspecified)", "fold change": "0.99 (inactive)"}
{"smiles": "CN1/C(=C\\C(=O)C[n+]2ccccc2)C(C)(C)c2ccccc21", "fold change": "0.819 (inactive)"}
{"smiles": "O=C(C[n+]1ccc2ccccc2c1)c1cc2ccccc2oc1=O", "fold change": 0.218}
{"smiles": "CN1/C(=C\\C(=O)CN2CCc3ccccc3C2)C(C)(C)c2ccccc21", "fold change": "0.879 (inactive)"}
{"smiles": "O=C(C[n+]1ccc2ccccc2c1)c1ccc2ccccc2c1", "fold change": "3.27 (inactive)"}
{"smiles": "CC(C)(C)C(=O)C[n+]1ccc2ccccc2c1", "fold change": "0.915 (inactive)"}
{"smiles": "O=C(C[n+]1ccc2ccccc2c1)c1ccccc1", "fold change": "0.911 (inactive)"}
{"smiles": "O=C(C[n+]1ccc2ccccc2c1)Nc1ccccc1", "fold change": "0.947 (inactive)"}
{"smiles": "Cc1cc[n+](CC(=O)/C=C2\\N(C)c3ccccc3C2(C)C)c(C)c1", "fold change": "0.848 (inactive)"}
